US9695155B2, “Herbicidal substituted pyrimidinyloxy benzene compounds” (E. I. DU PONT DE NEMOURS AND COMPANY, priority 2013, dated 2017)

Legend:
blackgrass = assay: Test C preemergence; type: in vivo, Alopecurus myosuroides; conditions: Alopecurus myosuroides, pre-emergence
In short: (§1)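 Seeds are planted in blended loam soil and sand and treated preemergence, while seedlings in a peat moss/vermiculite medium receive postemergence sprays at 2 to 18 cm height. All plants stay in the greenhouse for 13 to 15 days before visual comparison with controls on a 0–100 scale.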

Italian ryegrass [1] = assay: Test C postemergence; type: in vivo, Lolium multiflorum; conditions: Lolium multiflorum, post-emergence
In short: as §1

Heteranthera limosa = assay: Test B flooded paddy test; type: in vivo; conditions: Heteranthera limosa, Flood, 250 g ai/ha; 0 to 100 scale where 0 is no effect and 100 is complete control; read-out: Plant response rating, Ducksalad
In short: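 Seedlings are raised to two leaves, flooded to a depth of 3 cm and dosed by adding the compound to the floodwater. Water level is kept constant, and plants are scored visually versus controls 13–15 days later (0 = no effect, 100 = complete control).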

pigweed = assay: Test A postemergence; type: in vivo, Amaranthus retroflexus; conditions: Amaranthus retroflexus, post-emergence
In short: (§2)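 Greenhouse pot test, loam/sand soil. Formulation: non-phytotoxic solvent mix plus surfactant. Pre: directed spray onto soil after sowing. Post: plants at 1–2 leaf, 2–10 cm. Rated visually vs untreated controls at ~10 d, 0 (no effect) to 100 (complete control).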

lambsquarters = assay: Test C preemergence; type: in vivo, Chenopodium album; conditions: Chenopodium album, pre-emergence
In short: as §1

giant foxtail [2] = assay: Test A preemergence; type: in vivo, Setaria faberii; conditions: Setaria faberi, pre-emergence, 240 h, read-out: Foxtail, Giant plant response rating
In short: as §2

soybean = assay: Test C postemergence; type: in vivo, Glycine max; conditions: Glycine max, post-emergence
In short: as §1

velvetleaf = assay: Test C preemergence; type: in vivo, Abutilon theophrasti; conditions: Abutilon theophrasti, pre-emergence
In short: as §1

Italian ryegrass [3] = assay: Test C preemergence; type: in vivo, Lolium multiflorum; conditions: Lolium multiflorum, pre-emergence
In short: as §1

giant foxtail [4] = assay: Test A postemergence; type: in vivo, Setaria faberii; conditions: Setaria faberi, post-emergence, 240 h
In short: as §2

barnyardgrass = assay: Test A postemergence; type: in vivo, Echinochloa crus-galli; conditions: Echinochloa crus-galli, post-emergence, 240 h
In short: as §2

morningglory = assay: Test A postemergence; type: in vivo, Ipomoea spp.; conditions: Ipomoea, post-emergence, 240 h
In short: as §2

johnsongrass = assay: Test C postemergence; type: in vivo, Sorghum halepense; conditions: Sorghum halepense, post-emergence
In short: as §1

wheat, winter = assay: Test C preemergence; type: in vivo, Triticum aestivum; conditions: Triticum aestivum, pre-emergence
In short: as §1

## Clc1cnc(Oc2ccccc2-n2cc(Br)cn2)nc1 [Compound 7, 2-[2-(4-bromo-1H-pyrazol-1-yl)phenoxy]-5-chloropyrimidine]
blackgrass; 62 g ai/ha, preemergence, scale 0 (no effect) to 100 (complete control), read-out: Blackgrass plant response rating
  pest or weed control at 62 g/ha: 10%
blackgrass; 125 g ai/ha, preemergence, scale 0 (no effect) to 100 (complete control), read-out: Blackgrass plant response rating
  pest or weed control at 125 g/ha: 50%
blackgrass; 250 g ai/ha, preemergence, scale 0 (no effect) to 100 (complete control), read-out: Blackgrass plant response rating
  pest or weed control at 250 g/ha: 85%
blackgrass; Preemergence, 31 g ai/ha, scale 0 to 100, 0 no effect, 100 complete control, read-out: Plant response rating, Blackgrass
  pest or weed control at 31 g/ha: 5%
Italian ryegrass [1]; 125 g ai/ha, postemergence, read-out: Plant response rating (0 to 100), Ryegrass, Italian
  pest or weed control at 125 g/ha: 10%
Italian ryegrass [1]; 250 g ai/ha, postemergence, read-out: Plant response rating (0 to 100), Ryegrass, Italian
  pest or weed control at 250 g/ha: 40%
Italian ryegrass [1]; Postemergence, 31 g ai/ha, scale 0 to 100 (0 no effect, 100 complete control), 13 to 15 days, read-out: Plant response rating, Ryegrass, Italian
  pest or weed control at 31 g/ha: 5%
Italian ryegrass [1]; Postemergence, 62 g ai/ha, scale 0 to 100 (0 no effect, 100 complete control), read-out: Plant response rating, Ryegrass, Italian
  pest or weed control at 62 g/ha: 10%
Heteranthera limosa
  pest or weed control at 250 g/ha: 80%
pigweed; 125 g ai/ha, 0 to 100 scale where 0 is no effect and 100 is complete control, read-out: Plant response rating, Pigweed
  pest or weed control at 125 g/ha: 100%
pigweed; 240 h, 500 g ai/ha, 0 to 100 scale, 0 no effect, 100 complete control, read-out: Plant response rating Pigweed
  pest or weed control at 500 g/ha: 100%
lambsquarters; 62 g ai/ha, preemergence, scale 0 (no effect) to 100 (complete control), read-out: Lambsquarters plant response rating
  pest or weed control at 62 g/ha: 80%
lambsquarters; 125 g ai/ha, preemergence, scale 0 (no effect) to 100 (complete control), read-out: Lambsquarters plant response rating
  pest or weed control at 125 g/ha: 85%
lambsquarters; 250 g ai/ha, preemergence, scale 0 (no effect) to 100 (complete control), read-out: Lambsquarters plant response rating
  pest or weed control at 250 g/ha: 95%
lambsquarters; Preemergence, 31 g ai/ha, scale 0 to 100, 0 no effect, 100 complete control, read-out: Plant response rating, Lambsquarters
  pest or weed control at 31 g/ha: 80%
Giant foxtail [2]; 125 g ai/ha, 0 to 100 scale where 0 is no effect and 100 is complete control
  pest or weed control at 125 g/ha: 100%
Giant foxtail [2]; 500 g ai/ha, 0 to 100 scale, 0 no effect, 100 complete control, approx. 10 days
  pest or weed control at 500 g/ha: 100%
soybean; 125 g ai/ha, postemergence, read-out: Plant response rating (0 to 100), Soybean
  Soybean plant response rating (crop injury, 0-100 scale) at 125 g/ha: 98%
soybean; 250 g ai/ha, postemergence
  Soybean plant response rating (crop injury, 0-100 scale) at 250 g/ha: 98%
soybean; Postemergence, 31 g ai/ha, scale 0 to 100 (0 no effect, 100 complete control), 13 to 15 days
  Soybean plant response rating (crop injury, 0-100 scale) at 31 g/ha: 85%
soybean; Postemergence, 62 g ai/ha, scale 0 to 100 (0 no effect, 100 complete control)
  Soybean plant response rating (crop injury, 0-100 scale) at 62 g/ha: 98%
velvetleaf; 62 g ai/ha, preemergence, scale 0 (no effect) to 100 (complete control), read-out: Velvetleaf plant response rating
  pest or weed control at 62 g/ha: 100%
velvetleaf; 125 g ai/ha, preemergence, scale 0 (no effect) to 100 (complete control), read-out: Velvetleaf plant response rating
  pest or weed control at 125 g/ha: 100%
velvetleaf; 250 g ai/ha, preemergence, scale 0 (no effect) to 100 (complete control), read-out: Velvetleaf plant response rating
  pest or weed control at 250 g/ha: 100%
velvetleaf; Preemergence, 31 g ai/ha, scale 0 to 100, 0 no effect, 100 complete control, read-out: Plant response rating, Velvetleaf
  pest or weed control at 31 g/ha: 40%
Italian ryegrass [3]; 62 g ai/ha, preemergence, scale 0 (no effect) to 100 (complete control), read-out: Ryegrass, Italian plant response rating
  pest or weed control at 62 g/ha: 0%
Italian ryegrass [3]; 125 g ai/ha, preemergence, scale 0 (no effect) to 100 (complete control), read-out: Ryegrass, Italian plant response rating
  pest or weed control at 125 g/ha: 5%
Italian ryegrass [3]; 250 g ai/ha, preemergence, scale 0 (no effect) to 100 (complete control), read-out: Ryegrass, Italian plant response rating
  pest or weed control at 250 g/ha: 40%
Italian ryegrass [3]; Preemergence, 31 g ai/ha, scale 0 to 100, 0 no effect, 100 complete control, read-out: Plant response rating, Ryegrass, Italian
  pest or weed control at 31 g/ha: 0%
Giant foxtail [4]; 125 g ai/ha, 0 to 100 scale where 0 is no effect and 100 is complete control, read-out: Plant response rating, Foxtail, Giant
  pest or weed control at 125 g/ha: 90%
Giant foxtail [4]; 500 g ai/ha, 0 to 100 scale, 0 no effect, 100 complete control, read-out: Plant response rating Foxtail, Giant
  pest or weed control at 500 g/ha: 100%
barnyardgrass; 125 g ai/ha, 0 to 100 scale where 0 is no effect and 100 is complete control, read-out: Plant response rating, Barnyardgrass
  pest or weed control at 125 g/ha: 90%
barnyardgrass; 500 g ai/ha, 0 to 100 scale, 0 no effect, 100 complete control, read-out: Plant response rating Barnyardgrass
  pest or weed control at 500 g/ha: 100%
morningglory; 125 g ai/ha, 0 to 100 scale where 0 is no effect and 100 is complete control, read-out: Plant response rating, Morningglory
  pest or weed control at 125 g/ha: 70%
morningglory; 500 g ai/ha, 0 to 100 scale, 0 no effect, 100 complete control, read-out: Plant response rating Morningglory
  pest or weed control at 500 g/ha: 100%
johnsongrass; 125 g ai/ha, postemergence, read-out: Plant response rating (0 to 100), Johnsongrass
  pest or weed control at 125 g/ha: 5%
johnsongrass; 250 g ai/ha, postemergence, read-out: Plant response rating (0 to 100), Johnsongrass
  pest or weed control at 250 g/ha: 10%
johnsongrass; Postemergence, 31 g ai/ha, scale 0 to 100 (0 no effect, 100 complete control), 13 to 15 days, read-out: Plant response rating, Johnsongrass
  pest or weed control at 31 g/ha: 0%
johnsongrass; Postemergence, 62 g ai/ha, scale 0 to 100 (0 no effect, 100 complete control), read-out: Plant response rating, Johnsongrass
  pest or weed control at 62 g/ha: 0%
wheat, winter; 62 g ai/ha, preemergence, scale 0 (no effect) to 100 (complete control), read-out: Wheat plant response rating
  plant injury at 62 g/ha: 5%
wheat, winter; 125 g ai/ha, preemergence, scale 0 (no effect) to 100 (complete control), read-out: Wheat plant response rating
  plant injury at 125 g/ha: 10%
wheat, winter; 250 g ai/ha, preemergence, scale 0 (no effect) to 100 (complete control), read-out: Wheat plant response rating
  plant injury at 250 g/ha: 40%
wheat, winter; Preemergence, 31 g ai/ha, scale 0 to 100, 0 no effect, 100 complete control, read-out: Plant response rating, Wheat
  plant injury at 31 g/ha: 0%
